Measured values: patent US20160367623A1, “AGONISTS OF GUANYLATE CYCLASE USEFUL FOR THE TREATMENT OF GASTROINTESTINAL DISORDERS, INFLAMMATION, CANCER AND OTHER DISORDERS” (priority 2015, published 2016)
Bridge positions count the residues as written; N and C are the ends. Ends that are not written are not given here.

Test system: patients with chronic idiopathic constipation (CIC)
Experiment: Second phase 3 CIC trial: change from baseline in stool consistency (BSFS)
Assay type: in vivo, human
[1] = 3 mg, Week 7, All Randomized (includes Duplicate Patients)
[2] = 3 mg, Week 7, ITT Population-Excluding Duplicate Patients
[3] = 3 mg, Week 8, All Randomized (includes Duplicate Patients)
[4] = 3 mg, Week 8, ITT Population-Excluding Duplicate Patients
[5] = 3 mg, Week 9, All Randomized (includes Duplicate Patients)
[6] = 3 mg, Week 9, ITT Population-Excluding Duplicate Patients
[7] = 3 mg, Week 10, All Randomized (includes Duplicate Patients)
[8] = 3 mg, Week 10, ITT Population-Excluding Duplicate Patients
[9] = 3 mg, Week 11, All Randomized (includes Duplicate Patients)
[10] = 3 mg, Week 11, ITT Population-Excluding Duplicate Patients
[11] = 3 mg, Week 12, All Randomized (includes Duplicate Patients)
[12] = 3 mg, Week 12, ITT Population-Excluding Duplicate Patients
[13] = 3 mg, overall average estimate across the 12-week treatment period, All Randomized (includes Duplicate Patients)
[14] = 3 mg, overall average estimate across the 12-week treatment period, ITT Population
[15] = 3 mg, overall average estimate across the 12-week treatment period, ITT Population-Excluding Duplicate Patients
[16] = 6 mg, Post-Treatment Week 13, All Randomized (includes Duplicate Patients)
[17] = 6 mg, Post-Treatment Week 13, ITT Population
[18] = 6 mg, Post-Treatment Week 13, ITT Population-Excluding Duplicate Patients
[19] = 6 mg, Post-Treatment Week 14, All Randomized (includes Duplicate Patients)
[20] = 6 mg, Post-Treatment Week 14, ITT Population

“Asn^1-Asp^2-Glu^3-Cys^4-Glu^5-Leu^6-Cys^7-Val^8-Asn^9-Val^10-Ala^11-Cys^12-Thr^13-Gly^14-Cys^15-Leu^16 (NDECELCVNVACTGCL; disulfide 4-12, 7-15) [Plecanatide, uroguanylin analogue, guanylate cyclase-C agonist; (C4:C12, C7:C15) bicycle peptide]” was tested, and the “Change from Baseline in Stool Consistency, Difference from Placebo” value (from here on “Change from Baseline … Difference from Placebo”) [1] was 0.60, the “Change from Baseline in Stool Consistency, LS Mean (SE)” value (shortened to “Change from Baseline … (SE)”) [1] was 1.46 (0.072) and the “Change from Baseline … Difference from Placebo” value (3 mg, Week 7, ITT Population) was 0.60. The “Change from Baseline … (SE)” value (3 mg, Week 7, ITT Population) was 1.49 (0.074), the “Change from Baseline in Stool Consistency, Mean (SD)” value (from here on “Change from Baseline … (SD)”) (3 mg, Week 7, ITT Population) was 1.58 (1.447) and the “Change from Baseline … Difference from Placebo” value [2] was 0.61. The “Change from Baseline … (SE)” value [2] was 1.50 (0.075), the “Change from Baseline … (SD)” value [2] was 1.60 (1.452) and the “Change from Baseline … Difference from Placebo” value [3] was 0.67. For the same substance, the “Change from Baseline … (SE)” value [3] was 1.58 (0.072), the “Change from Baseline … Difference from Placebo” value (3 mg, Week 8, ITT Population) was 0.66 and the “Change from Baseline … (SE)” value (3 mg, Week 8, ITT Population) was 1.60 (0.075). The “Change from Baseline … (SD)” value (3 mg, Week 8, ITT Population) was 1.71 (1.496), the “Change from Baseline … Difference from Placebo” value [4] was 0.67 and the “Change from Baseline … (SE)” value [4] was 1.60 (0.075). The “Change from Baseline … (SD)” value [4] was 1.71 (1.500), the “Change from Baseline … Difference from Placebo” value [5] was 0.68 and the “Change from Baseline … (SE)” value [5] was 1.55 (0.073). For the same substance, the “Change from Baseline … Difference from Placebo” value (3 mg, Week 9, ITT Population) was 0.68, the “Change from Baseline … (SE)” value (3 mg, Week 9, ITT Population) was 1.57 (0.075) and the “Change from Baseline … (SD)” value (3 mg, Week 9, ITT Population) was 1.68 (1.468). For the same substance, the “Change from Baseline … Difference from Placebo” value [6] was 0.66, the “Change from Baseline … (SE)” value [6] was 1.57 (0.076) and the “Change from Baseline … (SD)” value [6] was 1.68 (1.468). The “Change from Baseline … Difference from Placebo” value [7] was 0.62, the “Change from Baseline … (SE)” value [7] was 1.52 (0.073) and the “Change from Baseline … Difference from Placebo” value (3 mg, Week 10, ITT Population) was 0.61. For the same substance, the “Change from Baseline … (SE)” value (3 mg, Week 10, ITT Population) was 1.54 (0.075), the “Change from Baseline … (SD)” value (3 mg, Week 10, ITT Population) was 1.65 (1.539) and the “Change from Baseline … Difference from Placebo” value [8] was 0.61. The “Change from Baseline … (SE)” value [8] was 1.54 (0.076), the “Change from Baseline … (SD)” value [8] was 1.65 (1.548) and the “Change from Baseline … Difference from Placebo” value [9] was 0.55. For the same substance, the “Change from Baseline … (SE)” value [9] was 1.48 (0.073), the “Change from Baseline … Difference from Placebo” value (3 mg, Week 11, ITT Population) was 0.54 and the “Change from Baseline … (SE)” value (3 mg, Week 11, ITT Population) was 1.50 (0.075). The “Change from Baseline … (SD)” value (3 mg, Week 11, ITT Population) was 1.58 (1.598), the “Change from Baseline … Difference from Placebo” value [10] was 0.54 and the “Change from Baseline … (SE)” value [10] was 1.51 (0.076). The “Change from Baseline … (SD)” value [10] was 1.59 (1.595), the “Change from Baseline … Difference from Placebo” value [11] was 0.57 and the “Change from Baseline … (SE)” value [11] was 1.57 (0.073). The “Change from Baseline … Difference from Placebo” value (3 mg, Week 12, ITT Population) was 0.58, the “Change from Baseline … (SE)” value (3 mg, Week 12, ITT Population) was 1.60 (0.075) and the “Change from Baseline … (SD)” value (3 mg, Week 12, ITT Population) was 1.69 (1.480). For the same substance, the “Change from Baseline … Difference from Placebo” value [12] was 0.58, the “Change from Baseline … (SE)” value [12] was 1.61 (0.076) and the “Change from Baseline … (SD)” value [12] was 1.70 (1.476). The “Change from Baseline … Difference from Placebo” value [13] was 0.63, the “Change from Baseline … (SE)” value [13] was 1.48 (0.058) and the “Change from Baseline … Difference from Placebo” value [14] was 0.62. The “Change from Baseline … (SE)” value [14] was 1.49 (0.060), the “Change from Baseline … Difference from Placebo” value [15] was 0.62 and the “Change from Baseline … (SE)” value [15] was 1.50 (0.061). The “Change from Baseline … Difference from Placebo” value [16] was 0.09, the “Change from Baseline … (SE)” value [16] was 1.08 (0.070) and the “Change from Baseline … (SD)” value [16] was 1.03 (1.408). For the same substance, the “Change from Baseline … Difference from Placebo” value [17] was 0.09, the “Change from Baseline … (SE)” value [17] was 1.08 (0.071) and the “Change from Baseline … (SD)” value [17] was 1.04 (1.410). The “Change from Baseline … Difference from Placebo” value [18] was 0.09, the “Change from Baseline … (SE)” value [18] was 1.08 (0.072) and the “Change from Baseline … (SD)” value [18] was 1.04 (1.414). For the same substance, the “Change from Baseline … Difference from Placebo” value [19] was 0.07, the “Change from Baseline … (SE)” value [19] was 1.06 (0.072) and the “Change from Baseline … (SD)” value [19] was 1.04 (1.393). The “Change from Baseline … Difference from Placebo” value [20] was 0.06, the “Change from Baseline … (SE)” value [20] was 1.07 (0.074) and the “Change from Baseline … (SD)” value [20] was 1.06 (1.354). For the same substance, the “Change from Baseline … Difference from Placebo” value (6 mg, Post-Treatment Week 14, ITT Population-Excluding Duplicate Patients) was 0.06.
